Counter-ions that a name gives are not always drawn.
Legend:
[1] = target: T1, HCV NS3/4A protease complex, BMS strain (genotype 1a) (Hepatitis C virus genotype 1a, UniProt P27958, C1454S/C1711G); test: Recombinant HCV NS3/4A protease complex FRET peptide assay (BMS strain); format: biochemical; details: IC50, HCV NS3/4A protease FRET assay in vitro; IC50 ranges
T1 construct: recombinant HCV NS3/4A protease complex (amino'acids 1027 to 1711); inferred from the pET21b vector and Ni-NTA purification; made in house; host or cells: Escherichia coli BL21 (DE3), pET21b
From the text: The purpose of this in vitro assay was to measure the inhibition of HCV NS3 protease complexes, derived from the BMS, H77C or J4L6S strains, as described below, by compounds of the present invention. This assay provides an indication of how effective compounds of the present invention would be in inhibiting HCV proteolytic activity.
Serum from an HCV-infected patient was obtained from Dr. T. Wright, San Francisco Hospital. An engineered full-length cDNA (compliment deoxyribonucleic acid) template of the HCV genome (BMS strain) was constructed from DNA fragments obtained by reverse transcription-PCR (RT-PCR) of serum RNA (ribonucleic acid) and using primers selected on the basis of homology between other genotype 1a strains. From the determination of the entire genome sequence, a genotype 1a was assigned to the HCV isolate according to the classification of Simmonds et al. (See P Simmonds, K A Rose, S Graham, S W Chan, F McOmish, B C Dow, E A Follett, P L Yap and H Marsden, J. Clin. Microbiol., 31 (6), 1493-1503 (1993)). […] The infectious clones, H77C (1a genotype) and J4L6S (1b genotype) were obtained from R. Purcell (N1H) and the sequences are published in Genbank (AAB67036, see Yanagi, M., Purcell, R. H., Emerson, S. U. and Bukh, J. Proc. Natl. Acad. Sci. U.S.A. 94 (16), 8738-8743 (1997); AF054247, see Yanagi, M., St Claire, M., Shapiro, M., Emerson, S. U., Purcell, R. H. and Bukh, J, Virology 244 (1), 161-172. (1998)).
The BMS, H77C and J4L6S strains were used for production of recombinant NS3/4A protease complexes. DNA encoding the recombinant HCV NS3/4A protease complex (amino'acids 1027 to 1711) for these strains were manipulated as described by P. Gallinari et al. (see Gallinari P, Paolini C, Brennan D, Nardi C, Steinkuhler C, De Francesco R. Biochemistry. 38 (17):5620-32, (1999)). Briefly, a three-lysine solubilizing tail was added at the 3′-end of the NS4A coding region. The cysteine in the P1 position of the NS4A-NS4B cleavage site (amino acid 1711) was changed to a glycine to avoid the proteolytic cleavage of the lysine tag. Furthermore, a cysteine to serine mutation was introduced by PCR at amino acid position 1454 to prevent the autolytic cleavage in the NS3 helicase domain. The variant DNA fragment was cloned in the pET21b bacterial expression vector (Novagen)and the NS3/4A complex was expressed in Escherichia. coli strain BL21 (DE3) (Invitrogen) following the protocol described by P. Gallinari et al. (see Gallinari P, Brennan D, Nardi C, Brunetti M, Tomei L, Steinkuhler C, De Francesco R., J. Virol. 72 (8):6758-69 (1998)) with modifications. Briefly, NS3/4A expression was induced with 0.5 mM Isopropyl β-D-1-thiogalactopyranoside (IPTG) for 22 hr at 20° C. A typical fermentation (10L) yielded approximately 80 g of wet cell paste. The cells were resuspended in lysis buffer (10 mL/g) consisting of 25 mM N-(2-Hydroxyethyl)Piperazine-N′-(2-Ethane Sulfonic acid) (HEPES), pH 7.5, 20% glycerol, 500 mM Sodium Chloride (NaCl), 0.5% Triton-X100, 1 ug/ml lysozyme, 5 mM Magnesium Chloride (MgCl2), 1 ug/ml Dnasel, 5 mM β-Mercaptoethanol (OME), Protease inhibitor-Ethylenediamine Tetraacetic acid (EDTA) free (Roche), homogenized and incubated for 20 mins at 4° C. The homogenate was sonicated and clarified by ultra-centrifugation at 235000 g for 1 hr at 4° C. Imidazole was added to the supernatant to a final concentration of 15 mM and the pH adjusted to 8.0. The crude protein extract was loaded on a Nickel-Nitrilotriacetic acid (Ni-NTA) column pre-equilibrated with buffer B (25 mM HEPES, pH 8.0, 20% glycerol, 500 mM NaCl, 0.5% Triton-X100, 15 mM imidazole, 5 mM βME). The sample was loaded at a flow rate of 1 mL/min. The column was washed with 15 column volumes of buffer C (same as buffer B except with 0.2% Triton-X100). The protein was eluted with 5 column volumes of buffer D (same as buffer C except with 200 mM Imidazole). […]

[2] = system: HCV replicon in Huh7 cells; test: HCV replicon cell-based assay (replicon FRET assay); parameters: species or system HCV strain 1B; details: Hepatitis C virus, Huh-7, HCV replicon cell assay; EC50 ranges
From the text: An HCV replicon whole cell system was established as described by Lohmann V, Korner F, Koch J, Herian U, Theilmann L, Bartenschlager R., Science 285 (5424):110-3 (1999). This system enabled us to evaluate the effects of our HCV Protease compounds on HCV RNA replication. Briefly, using the HCV strain 1B sequence described in the Lohmann paper (Assession number:AJ238799), an HCV cDNA was generated encoding the 5′ internal ribosome entry site (IRES), the neomycin resistance gene, the EMCV (encephalomyocarditis viurs)-IRES and the HCV nonstructural proteins, NS3-NS5B, and 3′ non-translated region (NTR). In vitro transcripts of the cDNA were transfected into the human hepatoma cell line, Huh7. […] Resulting cell lines were characterized for positive and negative strand RNA production and protein production over time.
Huh7 cells, constitutively expressing the HCV replicon, were grown in Dulbecco's Modified Eagle Media (DMEM) containing 10% Fetal calf serum (FCS) and 1 mg/ml G418 (Gibco-BRL). Cells were seeded the night before (1.5×10^4 cells/well) in 96-well tissue-culture sterile plates. Compound and no compound controls were prepared in DMEM containing 4% FCS, 1:100 Penicillin/Streptomysin, 1:100 L-glutamine and 5% DMSO in the dilution plate (0.5% DMSO final concentration in the assay). Compound/DMSO mixes were added to the cells and incubated for 4 days at 37° C. After 4 days, plates were rinsed thoroughly with Phosphate-Buffered Saline (PBS) (3 times 150 μl). The cells were lysed with 25 μl of a lysis assay reagent containing the FRET peptide (RET S1, as described for the in vitro enzyme assay). The lysis assay reagent was made from 5× cell Luciferase cell culture lysis reagent(Promega #E153A) diluted to 1× with distilled water, NaCl added to 150 mM final, the FRET peptide diluted to 10 μM final from a 2 mM stock in 100% DMSO. The plate was then placed into the Cytofluor 4000 instrument which had been set to 340 nm excitation/490 emission, automatic mode for 21 cycles and the plate read in a kinetic mode. EC50 determinations were carried out as described for the IC50 determinations.

T1 sequence (P27958 1027-1711 C1454S/C1711G, one chain of several): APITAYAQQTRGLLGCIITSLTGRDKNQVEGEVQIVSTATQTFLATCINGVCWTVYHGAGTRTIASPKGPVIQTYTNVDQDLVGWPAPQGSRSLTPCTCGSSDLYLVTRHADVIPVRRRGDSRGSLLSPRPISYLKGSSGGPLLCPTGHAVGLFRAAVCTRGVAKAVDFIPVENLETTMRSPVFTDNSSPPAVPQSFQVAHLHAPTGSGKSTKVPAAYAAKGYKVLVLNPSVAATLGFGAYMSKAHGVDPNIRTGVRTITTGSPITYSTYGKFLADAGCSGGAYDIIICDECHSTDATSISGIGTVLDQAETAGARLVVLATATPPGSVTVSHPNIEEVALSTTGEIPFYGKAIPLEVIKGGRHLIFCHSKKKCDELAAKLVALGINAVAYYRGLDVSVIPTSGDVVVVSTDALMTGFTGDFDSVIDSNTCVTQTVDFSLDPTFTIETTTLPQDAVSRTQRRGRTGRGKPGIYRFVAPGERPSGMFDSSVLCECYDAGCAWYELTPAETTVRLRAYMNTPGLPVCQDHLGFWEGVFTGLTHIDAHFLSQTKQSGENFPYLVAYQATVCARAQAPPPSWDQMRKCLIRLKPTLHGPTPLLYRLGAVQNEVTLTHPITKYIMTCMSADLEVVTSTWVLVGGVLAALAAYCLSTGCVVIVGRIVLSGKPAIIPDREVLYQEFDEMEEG

SMILES | IC50 [1] [nM] | EC50 [2] [nM]
COc1ccc2c(O[C@@H]3C[C@H]4C(=O)N[C@]5(C(=O)NS(=O)(=O)C6CC6)C[C@H]5/C=C\CCCCC[C@@H](NC(=O)OC(C)(C)C)C(=O)N4C3)ccnc2c1 [Compound 12] | < 500 | < 500
COc1ccc2c(O[C@@H]3C[C@H]4C(=O)N[C@]5(C(=O)NS(=O)(=O)C6CC6)C[C@H]5CCCCCC[C@H](NC(=O)OC(C)(C)C)C(=O)N4C3)cc(-c3ccccc3)nc2c1 [Compound 13, (1S,4R,6R,13S,17R)-[4-Cyclopropanesulfonylaminocarbonyl-17-(7-methoxy-2-phenylquinolin-4-yloxy)-2,14-dioxo-3,15-diazatricyclo[13.3.0.0^4,6]-octadec-13-yl]-carbamic acid tert-butyl ester] | < 50 | < 50
COc1ccc2c(O[C@@H]3C[C@H]4C(=O)N[C@]5(C(=O)NS(=O)(=O)C6CC6)C[C@H]5CCCCCC[C@H](N)C(=O)N4C3)cc(-c3ccccc3)nc2c1 [Compound 14, (1S,4R,6R,13S,17R)-Cyclopropanesulfonic acid [13-amino-17-(7-methoxy-2-phenylquinolin-4-yloxy)-2,14-dioxo-3,15-diazatricyclo[13.3.0.0^4,6]-octadecane-4-carbonyl]amide dihydrochloride] | < 50 | < 50
COc1ccc2c(O[C@@H]3C[C@H]4C(=O)N[C@]5(C(=O)NS(=O)(=O)C6CC6)C[C@H]5CCCCCCC[C@H](NC(=O)OC(C)(C)C)C(=O)N4C3)cc(-c3ccccc3)nc2c1 [Compound 15, (1S,4R,6R,14S,18R)-[4-Cyclopropanesulfonylaminocarbonyl-18-(7-methoxy-2-phenylquinolin-4-yloxy)-2,15-dioxo-3,16-diazatricyclo-[14.3.0.0^4,6]nonadec-14-yl]carbamic acid tert-butyl ester] | < 50 | < 50
COc1ccc2c(O[C@@H]3C[C@H]4C(=O)N[C@]5(C(=O)NS(=O)(=O)C6CC6)C[C@H]5CCCCCCC[C@H](N)C(=O)N4C3)cc(-c3ccccc3)nc2c1 [Compound 16, (1S,4R,6R,14S,18R)-Cyclopropanesulfonic acid [14-amino-18-(7-methoxy-2-phenylquinolin-4-yloxy)-2,15-dioxo-3,16-diazatricyclo[14.3.0.0^4,6]-nonadecane-4-carbonyl]amide dihydrochloride] | < 50 | < 50
COc1ccc2c(O[C@@H]3C[C@H]4C(=O)N[C@]5(C(=O)NS(=O)(=O)C6CCC6)C[C@H]5/C=C\CCCC[C@H](NC(=O)OC(C)(C)C)C(=O)N4C3)cc(-c3ccccc3)nc2c1 [Compound 17, (1S,4R,6S,13S,17R)-7-cis-[4-Cyclobutanesulfonylaminocarbonyl-17-(7-methoxy-2-phenylquinolin-4-yloxy)-2,14-dioxo-3,15-diazatricyclo[13.3.0.0^4,6]octadec-7-en-13-yl]carbamic acid tert-butyl ester] | < 50 | < 500
COc1ccc2c(O[C@@H]3C[C@H]4C(=O)N[C@]5(C(=O)NS(=O)(=O)C6CCC6)CC5CCCCCC[C@H](NC(=O)OC(C)(C)C)C(=O)N4C3)cc(-c3ccccc3)nc2c1 (stereo partly drawn) [Compound 18, (1S,4R,6R,13S,17R)-[4-Cyclobutanesulfonylaminocarbonyl-17-(7-methoxy-2-phenylquinolin-4-yloxy)-2,14-dioxo-3,15-diazatricyclo[13.3.0.0^4,6]octa-dec-13-yl]carbamic acid tert-butyl ester] | < 50 | < 50
COc1ccc2c(O[C@@H]3C[C@H]4C(=O)N[C@]5(C(=O)NS(=O)(=O)C6CCC6)CC5CCCCCCC[C@H](NC(=O)OC(C)(C)C)C(=O)N4C3)cc(-c3ccccc3)nc2c1 (stereo partly drawn) [Compound 19, (1S,4R,6R,14S,18R)-[4-Cyclobutanesulfonylaminocarbonyl-18-(7-methoxy-2-phenylquinolin-4-yloxy)-2,15-dioxo-3,16-diazatricyclo-[14.3.0.0^4,6]nona-dec-14-yl]carbamic acid tert-butyl ester] | < 50 | < 50
COc1ccc2c(O[C@@H]3C[C@H]4C(=O)N[C@]5(C(=O)NS(=O)(=O)C6CC6)CC5/C=C\CCCCC[C@H](NC(=O)NC(C)(C)C)C(=O)N4C3)cc(-c3ccccc3)nc2c1 (stereo partly drawn) [Compound 20, (1S,4R,6S,14S,18R)-7-cis-Cyclopropanesulfonic acid [14-(3-tert-butylureido)-18-(7-methoxy-2-phenyl-quinolin-4-yloxy)-2,15-dioxo-3,16-diazatricyclo[14.3.0.0^4,6]nona-dec-7-ene-4-carbonyl]amide] | < 50 | < 50
COc1ccc2c(O[C@@H]3C[C@H]4C(=O)N[C@]5(C(=O)NS(=O)(=O)C6CC6)C[C@H]5/C=C\CCCCC[C@H](NC(=O)OCCF)C(=O)N4C3)cc(-c3ccccc3)nc2c1 [Compound 21, (1S,4R,6S,14S,18R)-7-cis-[4-Cyclopropanesulfonylaminocarbonyl-18-(7-methoxy-2-phenylquinolin-4-yloxy)-2,15-dioxo-3,16-diazatricyclo-[14.3.0.0^4,6]nonadec-7-en-14-yl]carbamic acid 2-fluoroethyl ester] | < 50 | < 50
